From patent US20230017532A1 (Hoffmann-La Roche Inc., priority 2018, published 2023)
Counter-ions that a name gives are not always drawn.

These molecules were tested on Acinetobacter baumannii ATCC17978 (assay: Antimicrobial susceptibility testing: 90% growth inhibitory concentration (IC90) determination, Iso-Sensitest broth, OD 600 nm). Settings: Acinetobacter baumannii, ATCC17978, 16 h, 90% growth inhibitory concentration, Acinetobacter baumannii ATCC17978, Iso-Sensitest broth, OD 600 nm over 16 h; read-out: ATCC 17978 IC90.
Type: cell-based
In short: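 Growth of bacteria (~5×10^5 CFU/ml, Iso-Sensitest medium, 35±2 °C) was followed by OD at 600 nm at 20-min intervals over 16 h against a 10-point twofold compound series (e.g. 50–0.097 μM final). Concentration giving 90% inhibition in log phase was reported.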
Molecule `Cc1cc(Nc2nccn3c(-c4ccc(OCC#CCN)c(F)c4F)cnc23)ccc1C(=O)NCCOCCN` [Example 160, 4-[[3-[4-(4-aminobut-2-ynoxy)-2,3-difluorophenyl]imidazo[1,2-a]pyrazin-8-yl]amino]-N-[2-(2-aminoethoxy)ethyl]-2-methylbenzamide] has an IC90 of 430 nM. With `COc1ccc(-c2cnc3c(Nc4ccc(C(=O)NCCOCCN)c(C)c4)nccn23)cc1` [Example 14, N-(2-(2-aminoethoxy)ethyl)-4-((3-(4-methoxyphenyl)imidazo[1,2-a]pyrazin-8-yl)amino)-2-methylbenzamide hydrochloride] the IC90 was 240 nM. Work on `COc1ccc(-c2cnc3c(Nc4ccc(C(=O)N(C)CCOCCN5CCN(C=O)CC5)c(C)c4)nccn23)cc1F` [Example 140, 4-[[3-(3-fluoro-4-methoxyphenyl)imidazo[1,2-a]pyrazin-8-yl]amino]-N-[2-[2-(4-formylpiperazin-1-yl)ethoxy]ethyl]-N,2-dimethyl-benzamide] yielded an IC90 of 1000 nM. Molecule `COc1ccc(-c2cnc3c(Nc4ccc(C(=O)NCCOCCO)c(C)c4)nccn23)cc1` [Example 116, N-[2-(2-hydroxyethoxy)ethyl]-4-[[3-(4-methoxyphenyl)imidazo[1,2-a]pyrazin-8-yl]amino]-2-methylbenzamide] has an IC90 of 590 nM. `CCc1cc(Nc2nccn3c(-c4ccc(OC)c(F)c4F)cnc23)ccc1C(=O)NCCNCC(=O)O` [Example 48, (2-(4-((3-(2,3-difluoro-4-methoxyphenyl)imidazo[1,2-a]pyrazin-8-yl)amino)-2-ethylbenzamido)ethyl)glycine compound with 2,2,2-trifluoroacetic acid] gave an IC90 of 920 nM. `CCc1cc(Nc2nccn3c(-c4ccc(OCC#N)c(F)c4F)cnc23)ccc1C(=O)NCCOCCN(C)C` [Example 21, 4-[[3-[4-(cyanomethoxy)-2,3-difluoro-phenyl]imidazo[1,2-a]pyrazin-8-yl]amino]-N-[2-[2-(dimethylamino)ethoxy]ethyl]-2-ethyl-benzamide] gave an IC90 of 160 nM. With `COc1ccc(-c2cnc3c(Nc4ccc(C(=O)NCCCOCC(=O)N5CCNCC5)c(C)c4)nccn23)cc1F` [Example 118, 4-[[3-(3-fluoro-4-methoxyphenyl)imidazo[1,2-a]pyrazin-8-yl]amino]-2-methyl-N-[3-(2-oxo-2-piperazin-1-ylethoxy)propyl] benzamide; hydrochloride] the IC90 was 600 nM. In the case of `CCc1cc(Nc2nccn3c(-c4ccc(OC(F)F)c(F)c4F)cnc23)ccc1C(=O)NCCOCCN(C)CC(=O)O` [Example 51, N-(2-(2-(4-((3-(4-(Difluoromethoxy)-2,3-difluorophenyl)imidazo[1,2-a]pyrazin-8-yl)amino)-2-ethylbenzamido)ethoxy)ethyl)-N-methylglycine trifluoroacetate], the IC90 is reported as 300 nM. `COc1ccc(-c2cnc3c(Nc4ccc(C(=O)NCCCOCC(=O)O)c(C)c4)nccn23)cc1F` [Example 157, 2-[3-[[4-[[3-(3-fluoro-4-methoxyphenyl)imidazo[1,2-a]pyrazin-8-yl]amino]-2-methylbenzoyl]amino]propoxy] acetic acid] showed an IC90 of 8100 nM. In the case of `CCc1cc(Nc2nccn3c(-c4ccc(Cl)c(F)c4F)cnc23)ccc1C(=O)NCCOCCNCCO` [Example 92, 4-[[3-(4-chloro-2,3-difluoro-phenyl)imidazo [1,2-a]pyrazin-8-yl]amino]-2-ethyl-N-[2-[2-(2-hydroxyethyl-amino)ethoxy]ethyl]benzamide], the IC90 is reported as 260 nM. `COc1ccc(-c2cnc3c(Nc4ccc(C(=O)NCCOCCn5nccn5)c(C)c4)nccn23)cc1` [Example 147, 4-[[3-(4-methoxyphenyl)imidazo[1,2-a]pyrazin-8-yl]amino]-2-methyl-N-[2-[2-(triazol-2-yl)ethoxy)ethyl] benzamide] was tested, and the IC90 was 1300 nM. `Cc1cc(Nc2nccn3c(-c4ccc(OC(F)F)cc4)cnc23)ccc1C(=O)NCCOCCN1CCC2(CCOCC2)C1` [Example 91, 4-[[3-[4-(difluoromethoxy)phenyl]imidazo [1,2-a]pyrazin-8-yl]amino]-2-methyl-N-[2-[2-(8-oxa-2-azaspiro[4.5]decan-2-yl)ethoxy]ethyl] benzamide] gave an IC90 of 650 nM. `COc1ccc(-c2cnc3c(Nc4ccc(C(=O)NCCOCCN5CCNCC5)c(C)c4)nccn23)cc1F` [Example 113, 4-[[3-(3-fluoro-4-methoxyphenyl)imidazo[1,2-a]pyrazin-8-yl]amino]-2-methyl-N-[2-(2-piperazin-1-ylethoxy)ethyl] benzamide; hydrochloride] gave an IC90 of 580 nM. For `Cc1cc(Nc2nccn3c(-c4ccc(OC(F)F)cc4)cnc23)ccc1C(=O)NCCOCCO` [Example 129, 4-[[3-[4-(difluoromethoxy)phenyl]imidazo [1,2-a]pyrazin-8-yl]amino]-N-[2-(2-hydroxyethoxy)ethyl]-2-methylbenzamide], the IC90 was 720 nM. With `COc1ccc(-c2cnc3c(Nc4ccc(C(=O)N(C)CCN(C)CCO)c(C)c4)nccn23)cc1F` [Example 144, 4-[[3-(3-fluoro-4-methoxyphenyl)imidazo[1,2-a]pyrazin-8-yl]amino]-N-[2-[2-hydroxyethyl (methyl)amino]ethyl]-N,2-dimethyl-benzamide] the IC90 was 1900 nM. Work on `CC(=O)NCCOCCNC(=O)c1ccc(Nc2nccn3c(-c4ccc(OC(F)F)cc4)cnc23)cc1C` [Example 98] yielded an IC90 of 420 nM. In the case of `CN(CCOCCN1CCNCC1)C(=O)c1ccc(Nc2nccn3c(-c4ccc(OC(F)F)cc4)cnc23)cc1Cl` [Example 162, 2-chloro-4-[[3-[4-(difluoromethoxy)phenyl]imidazo [1,2-a]pyrazin-8-yl]amino]-N-methyl-N-[2-(2-piperazin-1-yl-ethoxy)ethyl] benzamide; hydrochloride], the IC90 is reported as 540 nM. With `COc1ccc(-c2cnc3c(Nc4ccc(C(=O)NCCNCCC[C@H](N)C(=O)O)c(C)c4)nccn23)c(F)c1F` [Example 189, (2S)-2-amino-5-[2-[[4-[[3-(2,3-difluoro-4-methoxyphenyl)imidazo[1,2-a]pyrazin-8-yl]amino]-2-methyl-benzoyl]amino]ethylamino] pentanoic acid] the IC90 was 2400 nM. Work on `N#CCOc1ccc(-c2cnc3c(Nc4ccc(C(=O)NCCOCCn5ccnc5)c(Cl)c4)nccn23)c(F)c1F` [Example 19, N-(2-(2-(1H-imidazol-1-yl)ethoxy)ethyl)-2-chloro-4-((3-(4-(cyanomethoxy)-2,3-difluorophenyl)imidazo[1,2-a]pyrazin-8-yl)amino)benzamide] yielded an IC90 of 83 nM. `COc1ccc(-c2cnc3c(Nc4ccc(C(=O)NCCOCCN)c(CCF)c4)nccn23)c(F)c1F` [Example 74, N-[2-(2-aminoethoxy)ethyl]-4-[[3-(2,3-difluoro-4-methoxy-phenyl)imidazo[1,2-a]pyrazin-8-yl]amino]-2-(2-fluoroethyl)benzamide] showed an IC90 of 46 nM.

Same assay, conditions: Acinetobacter baumannii, ATCC17978, 16 h, read-out: ATCC 17978 IC90
Molecule `CCc1cc(Nc2nccn3c(-c4c(F)cc(OC)cc4F)cnc23)ccc1C(=O)NCCOCCN` [Example 54, N-[2-(2-aminoethoxy)ethyl]-4-[[3-(2,6-difluoro-4-methoxyphenyl)imidazo[1,2-a]pyrazin-8-yl]amino]-2-ethylbenzamide hydrochloride] has an IC90 of 320 nM. `COc1ccc(-c2cnc3c(Nc4cc(F)c(C(=O)NCCOCCN)c(Cl)c4)nccn23)c(F)c1F` [Example 60, dihydrochloride] gave an IC90 of 91 nM.
